Reference: PubChem BioAssay (NCI)
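A five-concentration, 48-hour dose response in 96-well plates underlies each endpoint, interpolated linearly between surrounding concentrations. TGI marks complete inhibition of growth.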

How the values were obtained:
Experiment in all cases: growth of human tumour cells (NCI), 48 h
LOX IMVI melanoma = test system: LOX IMVI melanoma
NCI-H522 lung = test system: NCI-H522 lung
HS 578T breast = test system: HS 578T breast
HCT-15 colon = test system: HCT-15 colon
SK-OV-3 ovarian = test system: SK-OV-3 ovarian
MALME-3M melanoma = test system: MALME-3M melanoma
UO-31 renal = test system: UO-31 renal
HL-60(TB) leukemia = test system: HL-60(TB) leukemia
SK-MEL-2 melanoma = test system: SK-MEL-2 melanoma
OVCAR-8 ovarian = test system: OVCAR-8 ovarian
MDA-MB-435 = test system: MDA-MB-435
786-0 renal = test system: 786-0 renal
SK-MEL-5 melanoma = test system: SK-MEL-5 melanoma
K-562 leukemia = test system: K-562 leukemia
CCRF-CEM leukemia = test system: CCRF-CEM leukemia
MDA-MB-231 breast = test system: MDA-MB-231 breast
OVCAR-3 ovarian = test system: OVCAR-3 ovarian
HOP-62 NSCLC = test system: HOP-62 NSCLC
UACC-257 melanoma = test system: UACC-257 melanoma
NCI-H23 lung = test system: NCI-H23 lung
SF-539 CNS = test system: SF-539 CNS
EKVX NSCLC = test system: EKVX NSCLC
HOP-92 NSCLC = test system: HOP-92 NSCLC
HCC-2998 colon = test system: HCC-2998 colon
OVCAR-5 ovarian = test system: OVCAR-5 ovarian
PC-3 prostate = test system: PC-3 prostate
SW-620 colon = test system: SW-620 colon
SN12C renal = test system: SN12C renal
KM12 colon = test system: KM12 colon
A549 NSCLC = test system: A549 NSCLC
SR leukemia = test system: SR leukemia
DU-145 prostate = test system: DU-145 prostate
MCF7 breast = test system: MCF7 breast
RPMI-8226 leukemia = test system: RPMI-8226 leukemia
TK-10 renal = test system: TK-10 renal
COLO 205 colon = test system: COLO 205 colon
MOLT-4 leukemia = test system: MOLT-4 leukemia
SNB-19 CNS = test system: SNB-19 CNS
SF-295 CNS = test system: SF-295 CNS
ACHN renal = test system: ACHN renal
SF-268 CNS = test system: SF-268 CNS
UACC-62 melanoma = test system: UACC-62 melanoma
NCI/ADR-RES ovarian = test system: NCI/ADR-RES ovarian
U251 CNS = test system: U251 CNS
M14 melanoma = test system: M14 melanoma
NCI-H460 lung = test system: NCI-H460 lung
RXF 393 renal = test system: RXF 393 renal
HCT-116 colon = test system: HCT-116 colon
IGROV1 ovarian = test system: IGROV1 ovarian
CAKI-1 renal = test system: CAKI-1 renal
A498 renal = test system: A498 renal
SK-MEL-28 melanoma = test system: SK-MEL-28 melanoma
T-47D breast = test system: T-47D breast
MDA-N = test system: MDA-N
HT29 colon = test system: HT29 colon
BT-549 breast = test system: BT-549 breast
OVCAR-4 ovarian = test system: OVCAR-4 ovarian
SNB-75 CNS = test system: SNB-75 CNS
NCI-H226 lung = test system: NCI-H226 lung

Measured: TGI

COc1cc(/C=C\C(=O)O)ccc1OCc1ccccc1
not listed: HT29 colon | BT-549 breast | OVCAR-4 ovarian | SNB-75 CNS | NCI-H226 lung
> 100 µM: all other assays above

CCCCc1ccc(Nc2nc3c(ncn3COCCO)c(=O)[nH]2)cc1
not listed: PC-3 prostate | NCI-H460 lung | CAKI-1 renal | SK-MEL-28 melanoma
> 100 µM: all other assays above
